Experimental data published in US8518874B2, “HCV inhibitors” (Virobay, Inc., priority 2005, dated 2013).

The molecules below were run on HCV replication (HCV replicon RNA in Huh7/Clone A cells) (assay: HCV Replicon Assay). Conditions: Hepatitis C virus, Huh-7, 48 h, read-out: IC50 for inhibition of HCV replication.
Format: cell-based
Text: The HCV replicon assay is a cell-culture system that mimics in vivo HCV replication and provides a system to study HCV replication in vitro. It was created by transfecting cloned viral RNA derived from a consensus HCV genomic sequence into human Huh7 hepatoma cells that are semi-permissive for viral RNA production (Lohmann V., Korner F., Koch J.-O., Herian U., Theilmann L. and Bartenschlager R. (1999). Replication of subgenomic Hepatitis C virus RNAs in a hepatoma cell line. Science 285, 110-113 and Blight K. J., Kolykhalov A. A. and Rice C. M. (2000). Efficient initiation of HCV RNA Replication in cell culture. Science 290, […]). These transfected cell lines contain a subgenomic HCV RNA genome that includes (1) the HCV 5′NTR fused to 12 amino acids of the capsid coding region, (2) the neomycin phosphotransferase gene (Neo) as a selectable marker, (3) the internal ribosome entry site (IRES) from encephalomyocarditis virus (EMCV) that directs translation of HCV non-structural proteins (variously NS2 or NS3 to NS5B), and (4) the 3′ NTR. Replicon-containing cells autonomously and persistently replicate HCV RNA that can be measured quantitatively by real-time qPCR. Therefore, the replicon system facilitates quantitative assessment of anti-viral activity by monitoring changes in HCV RNA replication in a cell-based assay.
HCV replicon-containing cells (Huh7/Clone A) were routinely maintained in Clone A growth medium (DMEM medium [Invitrogen], supplemented with 10% Fetal Bovine Serum, 1% Non Essential Amino Acids and 1 g/L G418). Test compounds were dissolved in dimethyl sulfoxide (DMSO) to make 200× stock solutions for all doses prior to treatment.
For the HCV replicon assay, Huh7/Clone A cells were trypsinized from culture flasks, seeded in 1 ml of Clone A growth medium without G418 at 4×10^4 cells per well in 24-well plates and incubated at 37° C. in a humidified CO2 (5%) incubator overnight. Following overnight incubation, compound solutions were added into wells in the same volume (5 μl of 200× compound stock per well) to give a final DMSO concentration of 0.5%. Three wells on each plate supplemented with 5 μl of DMSO served as untreated controls. For IC50 determinations, compounds were tested at 7 serial dilutions in triplicates from the starting stock solutions. The plates were incubated at 37° C. for 48 hours. After incubation, cells were harvested, transferred to 96-well plates, and subjected to total RNA extraction using the RNA Isolation Kit (RNeasy 96, Qiagen) according to the protocol described by the manufacture's RNeasy 96 Handbook (Qiagen).
Total RNA eluted in 130 μl of RNase-free dH2O was quantitated by the RiboGreen Assay according to the supplier's protocol (Molecular Probe). Briefly, 5 μl of RNA samples were aliquoted in duplicate to a 96-well black microplate and a 96-well TaqMan Optical plate. RNA samples in the black microplate were mixed with 95 μl of diluted RiboGreen:reagent (1:250 dilution in TE buffer) and sample fluorescence was measured using a fluorescence microplate reader at standard fluorescein wavelengths (excitation ˜480 nm, emission ˜520 nm). Ribosomal RNA (Molecular Probe) was used as standard.
TaqMan quantitative PCR (RT-qPCR) was used to quantitate the amount of HCV replicon RNA in each sample. The RT-qPCR reactions were performed in 25 μl on an ABI PRISM 7900 HT Sequence Detection System (Applied Biosystems). The reaction mixture contained 5 μl of total RNA (10-100 ng), 1×TaqMan Buffer A (Applied Biosystems), 5.5 mM MgCl2, 1.2 mM dNTP mix, 0.625 U of AmpliTaq Gold (Applied Biosystems), 5 U of MMLV reverse transcriptase (Promega), 5 U of rRNasin (Promega), 300 nM each of the forward and reverse primers, and 100 nM TaqMan MGB probe. […]

| SMILES | IC50 [µM] |
| --- | --- |
| CC(C)(C)NC(=O)N[C@H](C(=O)N1CC(Oc2ccc(Cl)cn2)C[C@H]1C(=O)N[C@@H](CC1CCC1)C(=O)C(=O)NC1CC1)C(C)(C)C (stereo partly drawn) [Compound 3, 1-[2S-(3-tert-butylureido)-3,3-dimethylbutyryl]-4R-(5-chloropyridin-2-yloxy)-pyrrolidine-2S-carboxylic acid (1S-cyclobutylmethyl-2-cyclopropylcarbamoyl-2-oxoethyl)-amide] | < 50 |
| CCC[C@H](NC(=O)[C@@H]1C[C@@H](Oc2ccc(Cl)cn2)CN1C(=O)[C@@H](NC(=O)OC(C)(C)C)C(C)(C)C)C(=O)C(=O)NC1CC1 [Compound 6, {1S-[4R-(5-chloropyridin-2-yloxy)-2S-(1S-cyclopropylaminooxalylbutyl-carbamoyl)-pyrrolidine-1-carbonyl]-2,2-dimethyl-propyl}-carbamic acid tent-butyl ester] | < 50 |
| CC(C)(C)OC(=O)N[C@H](C(=O)N1C[C@H](Oc2ccc(Cl)cn2)C[C@H]1C(=O)N[C@@H](CC1CCC1)C(=O)C(=O)NC1CC1)C(C)(C)C [Compound 7, {1S-[4R-(5-chloropyridin-2-yloxy)-2S-(1S-cyclobutylmethyl-2-cyclopropylcarbamoyl-2-oxo-ethylcarbamoyl)-pyrrolidine-1-carbonyl]-2,2-dimethyl-propyl}-carbamic acid tert-butyl ester] | < 50 |

Same assay, conditions: Hepatitis C virus, Huh-7; HCV replicon-containing Huh7/Clone A cells, 48 hours incubation, replicon RNA by RT-qPCR normalized to total RNA; read-out: IC50 for inhibition of HCV replication

| SMILES | IC50 [µM] |
| --- | --- |
| CCC[C@H](NC(=O)[C@@H]1C[C@@H](Oc2ccc(Cl)cn2)CN1C(=O)[C@@H](NC(=O)NC(C)(C)C)C(C)(C)C)C(=O)C(=O)NC1CC1 [Compound 8, 1-[2-(3-tert-butylureido)-3,3-dimethyl-butyryl]-4-(5-chloro-pyridin-2-yloxy)-pyrrolidine-2-carboxylic acid (1-cyclopropylaminooxalyl-butyl)-amide] | < 10 |
| COc1ccc2c(OC3C[C@@H](C(=O)N[C@@H](CC4CC4)C(=O)C(=O)NC4CC4)N(C(=O)[C@@H](NC(=O)NC(C)(C)C)C(C)(C)C)C3)nccc2c1 (stereo partly drawn) [Compound 10, 1-[2S-(3-tert-Butyl-ureido)-3,3-dimethyl-butyryl]-4R-(6-methoxy-isoquinolin-1-yloxy)-pyrrolidine-2S-carboxylic acid (2-cyclopropylcarbamoyl-1S-cyclopropylmethyl-2-oxo-ethyl)-amide] | < 10 |
| CCOc1ccc2c(OC3C[C@@H](C(=O)N[C@@H](CC4CC4)C(=O)C(=O)NC4CC4)N(C(=O)[C@@H](NC(=O)NC(C)(C)C)C(C)(C)C)C3)nccc2c1 (stereo partly drawn) [Compound 11, 1-[2S-(3-tert-Butyl-ureido)-3,3-dimethyl-butyryl]-4R-(6-ethoxy-isoquinolin-1-yloxy)-pyrrolidine-2-carboxylic acid (2-cyclopropylcarbamoyl-1S-cyclopropylmethyl-2S-oxo-ethyl)-amide] | < 10 |
| CCC[C@H](NC(=O)[C@@H]1CC(Oc2nccc3cc(OCC)ccc23)CN1C(=O)[C@@H](NC(=O)NC(C)(C)C)C(C)(C)C)C(=O)C(=O)NC1CC1 (stereo partly drawn) [Compound 12, 1-[2S-(3-tert-Butyl-ureido)-3,3-dimethyl-butyryl]-4R-(6-ethoxy-isoquinolin-1-yloxy)-pyrrolidine-2S-carboxylic acid (1S-cyclopropylaminooxalyl-butyl)-amide] | < 10 |
| CCCC[C@H](NC(=O)[C@@H]1CC(Oc2nccc3cc(OC)ccc23)CN1C(=O)[C@@H](NC(=O)NC(C)(C)C)C(C)(C)C)C(=O)C(=O)NC1CC1 (stereo partly drawn) [Compound 13, 1-[2S-(3-tert-Butyl-ureido)-3,3-dimethyl-butyryl]-4R-(6-methoxy-isoquinolin-1-yloxy)-pyrrolidine-2S-carboxylic acid (1S-cyclopropylaminooxalyl-pentyl)-amide] | < 10 |
